How the values were obtained:
Test in all cases: KINOMEscan competition binding
Conditions in all cases: compound 10.0 µM
MAP4K3 (human) = MAP4K3 (human) (UniProt Q8IVH8)
[1] = tested on: PIK3CA (human), P42336 [H1047L]
PRKD2 (human) = PRKD2 (human) (UniProt Q9BZL6)
RPS6KA1 KD2 (human) = RPS6KA1 KD2 (human) (UniProt Q15418)
ERBB2 (human) = ERBB2 (human) (UniProt P04626)
PIK3C2G (human) = PIK3C2G (human) (UniProt O75747)
RPS6KB1 (human) = RPS6KB1 (human) (UniProt P23443)
MAP3K13 (human) = MAP3K13 (human) (UniProt O43283)
DSTYK (human) = DSTYK (human) (UniProt Q6XUX3)
MET (human) = MET (human) (UniProt P08581)
MAP2K2 (human) = MAP2K2 (human) (UniProt P36507)
EPHB2 (human) = EPHB2 (human) (UniProt P29323)
SNRK (human) = SNRK (human) (UniProt Q9NRH2)
DCLK3 (human) = DCLK3 (human) (UniProt Q9C098)
DAPK2 (human) = DAPK2 (human) (UniProt Q9UIK4)
AURKB (human) = AURKB (human) (UniProt Q96GD4)
[2] = target: JAK2 JH1 catalytic (human) (UniProt O60674)
MELK (human) = MELK (human) (UniProt Q14680)
ERBB4 (human) = ERBB4 (human) (UniProt Q15303)
STK32C (human) = STK32C (human) (UniProt Q86UX6)
MAPK1 (human) = MAPK1 (human) (UniProt P28482)
RIPK4 (human) = RIPK4 (human) (UniProt P57078)
FGFR4 (human) = FGFR4 (human) (UniProt P22455)
PLK2 (human) = PLK2 (human) (UniProt Q9NYY3)
FLT4 (human) = FLT4 (human) (UniProt P35916)
[3] = target: JAK1 JH2 pseudokinase (human) (UniProt P23458)
PRKD3 (human) = PRKD3 (human) (UniProt O94806)
MAK (human) = MAK (human) (UniProt P20794)
CDK5 (human) = CDK5 (human) (UniProt Q00535)
RPS6KA6 KD2 (human) = RPS6KA6 KD2 (human) (UniProt Q9UK32)
MAP3K9 (human) = MAP3K9 (human) (UniProt P80192)
NEK9 (human) = NEK9 (human) (UniProt Q8TD19)
CDC2L2 (human) = CDC2L2 (human) (UniProt Q9UQ88)
DDR2 (human) = DDR2 (human) (UniProt Q16832)
MAP3K10 (human) = MAP3K10 (human) (UniProt Q02779)
SRPK3 (human) = SRPK3 (human) (UniProt Q9UPE1)
EGFR (human) = EGFR (human) (UniProt P00533)
EPHB3 (human) = EPHB3 (human) (UniProt P54753)
[4] = tested on: KIT (human), P10721 [D816H]
CDK19 (human) = CDK19 (human) (UniProt Q9BWU1)

Sequence of MELK (human) (Q14680 whole entry, looked up): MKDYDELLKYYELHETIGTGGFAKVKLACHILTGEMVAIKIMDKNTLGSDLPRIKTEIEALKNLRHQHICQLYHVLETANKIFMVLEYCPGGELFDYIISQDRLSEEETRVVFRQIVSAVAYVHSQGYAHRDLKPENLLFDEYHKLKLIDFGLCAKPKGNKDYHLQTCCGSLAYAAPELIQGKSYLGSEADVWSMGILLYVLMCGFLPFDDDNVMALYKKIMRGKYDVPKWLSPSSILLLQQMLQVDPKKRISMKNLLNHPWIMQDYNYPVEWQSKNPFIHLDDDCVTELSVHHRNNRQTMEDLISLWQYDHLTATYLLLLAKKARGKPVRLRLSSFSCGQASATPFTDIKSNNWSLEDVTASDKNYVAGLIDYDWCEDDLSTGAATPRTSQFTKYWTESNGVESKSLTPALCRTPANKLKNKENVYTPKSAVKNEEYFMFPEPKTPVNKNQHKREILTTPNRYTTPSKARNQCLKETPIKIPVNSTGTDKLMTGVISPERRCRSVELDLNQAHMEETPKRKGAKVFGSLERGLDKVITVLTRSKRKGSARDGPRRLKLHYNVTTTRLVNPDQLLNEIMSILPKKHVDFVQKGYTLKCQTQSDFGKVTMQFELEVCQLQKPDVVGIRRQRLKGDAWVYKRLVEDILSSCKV
Sequence of EPHB2 (human) (P29323 whole entry, looked up): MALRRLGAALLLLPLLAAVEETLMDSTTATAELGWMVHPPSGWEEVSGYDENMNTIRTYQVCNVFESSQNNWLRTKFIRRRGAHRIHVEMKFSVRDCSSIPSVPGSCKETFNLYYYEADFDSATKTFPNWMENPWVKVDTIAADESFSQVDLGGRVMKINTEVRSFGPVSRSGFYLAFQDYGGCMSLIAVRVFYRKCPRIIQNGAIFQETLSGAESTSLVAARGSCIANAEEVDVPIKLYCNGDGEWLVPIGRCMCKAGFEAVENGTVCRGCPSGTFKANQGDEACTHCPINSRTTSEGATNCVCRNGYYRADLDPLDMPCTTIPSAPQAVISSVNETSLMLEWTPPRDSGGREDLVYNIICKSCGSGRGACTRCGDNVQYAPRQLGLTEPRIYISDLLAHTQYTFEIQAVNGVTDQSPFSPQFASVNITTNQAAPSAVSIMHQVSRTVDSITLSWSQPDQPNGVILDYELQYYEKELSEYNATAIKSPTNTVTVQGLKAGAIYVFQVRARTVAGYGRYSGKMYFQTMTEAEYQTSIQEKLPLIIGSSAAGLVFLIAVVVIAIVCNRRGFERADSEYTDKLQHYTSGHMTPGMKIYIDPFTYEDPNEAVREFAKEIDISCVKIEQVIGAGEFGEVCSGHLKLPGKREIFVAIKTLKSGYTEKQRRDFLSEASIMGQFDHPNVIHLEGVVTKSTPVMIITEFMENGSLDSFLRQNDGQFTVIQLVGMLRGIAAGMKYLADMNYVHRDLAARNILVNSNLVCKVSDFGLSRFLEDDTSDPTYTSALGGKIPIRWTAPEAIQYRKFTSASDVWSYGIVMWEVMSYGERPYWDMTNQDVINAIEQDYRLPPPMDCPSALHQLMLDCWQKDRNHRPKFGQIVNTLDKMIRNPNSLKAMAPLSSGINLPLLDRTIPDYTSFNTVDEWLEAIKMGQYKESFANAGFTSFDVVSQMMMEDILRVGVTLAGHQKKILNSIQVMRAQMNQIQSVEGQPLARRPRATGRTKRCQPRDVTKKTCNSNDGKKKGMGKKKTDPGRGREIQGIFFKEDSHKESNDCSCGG
Sequence of MAP3K10 (human) (Q02779 whole entry, looked up): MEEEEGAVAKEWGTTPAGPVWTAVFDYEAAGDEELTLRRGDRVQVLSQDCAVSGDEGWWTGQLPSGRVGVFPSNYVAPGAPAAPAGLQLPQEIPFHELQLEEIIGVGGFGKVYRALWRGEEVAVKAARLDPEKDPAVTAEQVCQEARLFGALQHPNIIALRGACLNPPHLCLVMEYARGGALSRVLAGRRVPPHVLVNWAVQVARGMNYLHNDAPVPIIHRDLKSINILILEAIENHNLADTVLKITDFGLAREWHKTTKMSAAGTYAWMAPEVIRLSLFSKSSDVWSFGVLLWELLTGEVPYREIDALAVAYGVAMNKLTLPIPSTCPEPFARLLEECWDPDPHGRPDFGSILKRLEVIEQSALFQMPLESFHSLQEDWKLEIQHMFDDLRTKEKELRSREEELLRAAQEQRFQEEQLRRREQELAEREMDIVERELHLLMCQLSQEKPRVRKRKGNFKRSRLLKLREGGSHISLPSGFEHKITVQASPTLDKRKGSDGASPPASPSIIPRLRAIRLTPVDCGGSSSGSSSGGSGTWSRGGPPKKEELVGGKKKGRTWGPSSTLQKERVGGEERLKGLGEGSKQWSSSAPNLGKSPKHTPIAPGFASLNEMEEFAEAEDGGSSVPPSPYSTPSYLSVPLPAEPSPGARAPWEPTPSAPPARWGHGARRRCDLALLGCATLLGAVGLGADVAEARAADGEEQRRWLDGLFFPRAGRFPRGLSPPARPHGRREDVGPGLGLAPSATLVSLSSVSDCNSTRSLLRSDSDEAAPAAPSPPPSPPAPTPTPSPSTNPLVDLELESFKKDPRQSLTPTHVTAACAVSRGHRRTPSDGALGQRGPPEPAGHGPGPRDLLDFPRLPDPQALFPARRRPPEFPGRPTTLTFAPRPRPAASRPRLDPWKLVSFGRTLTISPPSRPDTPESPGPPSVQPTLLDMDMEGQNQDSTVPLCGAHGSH
Sequence of PIK3CA (human), P42336 [H1047L] (P42336 whole entry H1047L, looked up): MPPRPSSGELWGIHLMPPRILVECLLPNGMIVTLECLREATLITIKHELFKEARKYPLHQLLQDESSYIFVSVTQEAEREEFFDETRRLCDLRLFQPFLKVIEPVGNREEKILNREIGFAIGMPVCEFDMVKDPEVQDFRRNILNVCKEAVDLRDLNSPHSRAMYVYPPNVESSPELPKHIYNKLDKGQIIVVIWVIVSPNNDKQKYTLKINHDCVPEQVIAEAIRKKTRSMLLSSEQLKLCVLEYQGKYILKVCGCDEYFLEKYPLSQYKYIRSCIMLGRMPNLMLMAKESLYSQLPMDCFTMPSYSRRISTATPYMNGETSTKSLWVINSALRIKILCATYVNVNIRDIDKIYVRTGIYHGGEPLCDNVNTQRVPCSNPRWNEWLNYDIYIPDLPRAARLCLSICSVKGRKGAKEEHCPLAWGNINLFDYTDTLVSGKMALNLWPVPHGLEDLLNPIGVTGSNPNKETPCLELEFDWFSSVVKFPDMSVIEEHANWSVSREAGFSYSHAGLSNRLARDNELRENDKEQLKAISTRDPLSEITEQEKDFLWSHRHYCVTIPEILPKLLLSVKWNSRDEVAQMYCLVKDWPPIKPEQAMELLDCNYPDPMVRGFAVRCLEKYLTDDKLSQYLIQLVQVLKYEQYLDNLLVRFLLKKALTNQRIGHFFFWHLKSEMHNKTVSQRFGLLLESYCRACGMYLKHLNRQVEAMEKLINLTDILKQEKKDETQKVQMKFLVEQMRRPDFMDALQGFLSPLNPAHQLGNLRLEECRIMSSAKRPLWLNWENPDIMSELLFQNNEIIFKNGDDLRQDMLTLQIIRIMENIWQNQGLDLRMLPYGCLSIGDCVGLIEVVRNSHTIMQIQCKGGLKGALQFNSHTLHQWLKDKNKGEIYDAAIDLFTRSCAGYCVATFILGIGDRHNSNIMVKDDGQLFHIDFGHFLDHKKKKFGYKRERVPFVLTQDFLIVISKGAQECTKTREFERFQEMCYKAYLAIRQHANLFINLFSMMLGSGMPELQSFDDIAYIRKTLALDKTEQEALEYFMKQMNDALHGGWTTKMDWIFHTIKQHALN
Sequence of DAPK2 (human) (Q9UIK4 whole entry, looked up): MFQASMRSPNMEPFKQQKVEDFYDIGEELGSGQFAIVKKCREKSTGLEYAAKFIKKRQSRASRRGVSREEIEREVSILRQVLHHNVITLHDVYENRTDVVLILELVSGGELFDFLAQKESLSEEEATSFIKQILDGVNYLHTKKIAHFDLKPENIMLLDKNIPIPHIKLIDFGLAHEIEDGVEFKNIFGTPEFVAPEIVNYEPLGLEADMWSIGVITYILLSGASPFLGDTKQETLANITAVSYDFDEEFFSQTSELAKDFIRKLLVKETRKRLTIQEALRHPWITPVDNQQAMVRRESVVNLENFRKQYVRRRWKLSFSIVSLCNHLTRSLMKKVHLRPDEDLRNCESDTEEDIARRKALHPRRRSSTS
Sequence of FGFR4 (human) (P22455 whole entry, looked up): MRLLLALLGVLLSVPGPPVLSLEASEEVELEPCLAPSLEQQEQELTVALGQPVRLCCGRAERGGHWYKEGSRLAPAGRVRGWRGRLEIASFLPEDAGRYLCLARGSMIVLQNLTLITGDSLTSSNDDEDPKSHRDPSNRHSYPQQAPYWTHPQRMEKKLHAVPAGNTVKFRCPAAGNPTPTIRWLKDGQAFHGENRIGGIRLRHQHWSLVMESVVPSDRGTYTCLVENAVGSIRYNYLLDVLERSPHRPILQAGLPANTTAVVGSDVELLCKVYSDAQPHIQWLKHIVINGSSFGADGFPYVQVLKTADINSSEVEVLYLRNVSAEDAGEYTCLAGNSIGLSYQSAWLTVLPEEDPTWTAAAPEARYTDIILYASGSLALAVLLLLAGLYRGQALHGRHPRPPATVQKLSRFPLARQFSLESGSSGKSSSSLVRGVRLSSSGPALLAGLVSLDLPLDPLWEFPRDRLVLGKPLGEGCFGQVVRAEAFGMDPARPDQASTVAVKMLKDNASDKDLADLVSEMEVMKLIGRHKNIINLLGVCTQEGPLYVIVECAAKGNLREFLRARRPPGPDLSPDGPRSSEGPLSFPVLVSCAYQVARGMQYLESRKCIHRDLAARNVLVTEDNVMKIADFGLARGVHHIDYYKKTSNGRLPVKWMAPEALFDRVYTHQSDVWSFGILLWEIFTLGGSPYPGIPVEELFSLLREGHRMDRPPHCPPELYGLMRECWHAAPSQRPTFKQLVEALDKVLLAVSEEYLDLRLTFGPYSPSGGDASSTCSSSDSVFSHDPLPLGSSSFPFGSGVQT

SMILES | kinase still bound, per cent of control (MAP4K3 (human)) [%] | kinase still bound, per cent of control [1] [%] | kinase still bound, per cent of control (PRKD2 (human)) [%] | kinase still bound, per cent of control (RPS6KA1 KD2 (human)) [%] | kinase still bound, per cent of control (ERBB2 (human)) [%] | kinase still bound, per cent of control (PIK3C2G (human)) [%] | kinase still bound, per cent of control (RPS6KB1 (human)) [%] | kinase still bound, per cent of control (MAP3K13 (human)) [%] | kinase still bound, per cent of control (DSTYK (human)) [%] | kinase still bound, per cent of control (MET (human)) [%] | kinase still bound, per cent of control (MAP2K2 (human)) [%] | kinase still bound, per cent of control (EPHB2 (human)) [%] | kinase still bound, per cent of control (SNRK (human)) [%] | kinase still bound, per cent of control (DCLK3 (human)) [%] | kinase still bound, per cent of control (DAPK2 (human)) [%] | kinase still bound, per cent of control (AURKB (human)) [%] | kinase still bound, per cent of control [2] [%] | kinase still bound, per cent of control (MELK (human)) [%] | kinase still bound, per cent of control (ERBB4 (human)) [%] | kinase still bound, per cent of control (STK32C (human)) [%] | other results
C=CC(=O)Nc1ccc(C(=O)c2sc(Nc3ccc(N4CCN(C)CC4)cc3OC)nc2N)cc1 | 60 | 100 | 70 | 0.3 | 77 | 100 | 100 | 100 | 4.7 | 83 | 89 | 100 | 0.2 | 3.8 | 2.8 | 62 | 74 | 87 | 61 | 84 | kinase still bound, per cent of control (MAPK1 (human)): 100%; kinase still bound, per cent of control (RIPK4 (human)): 89%; kinase still bound, per cent of control (FGFR4 (human)): 26%; kinase still bound, per cent of control (PLK2 (human)): 81%; kinase still bound, per cent of control (FLT4 (human)): 100%; kinase still bound, per cent of control [3]: 65%; kinase still bound, per cent of control (PRKD3 (human)): 54%; kinase still bound, per cent of control (MAK (human)): 100%; kinase still bound, per cent of control (CDK5 (human)): 86%; kinase still bound, per cent of control (RPS6KA6 KD2 (human)): 0.7%; kinase still bound, per cent of control (MAP3K9 (human)): 93%; kinase still bound, per cent of control (NEK9 (human)): 100%; kinase still bound, per cent of control (CDC2L2 (human)): 87%; kinase still bound, per cent of control (DDR2 (human)): 100%; kinase still bound, per cent of control (MAP3K10 (human)): 91%; kinase still bound, per cent of control (SRPK3 (human)): 54%; kinase still bound, per cent of control (EGFR (human)): 84%; kinase still bound, per cent of control (EPHB3 (human)): 76%; kinase still bound, per cent of control [4]: 70%; kinase still bound, per cent of control (CDK19 (human)): 100%
CC1=C(C(=O)Nc2cc3cn[nH]c3cc2F)C(c2ccc(C(F)(F)F)cc2)CC(=O)N1 (stereo not given) | 77 | 83 | 76 | 83 | 71 | 52 | 50 | 83 | 69 | 51 | 64 | 100 | 100 | 70 | 92 | 42 | 12 | 99 | 41 | 48 | kinase still bound, per cent of control (MAPK1 (human)): 50%; kinase still bound, per cent of control (RIPK4 (human)): 98%; kinase still bound, per cent of control (FGFR4 (human)): 67%; kinase still bound, per cent of control (PLK2 (human)): 86%; kinase still bound, per cent of control (FLT4 (human)): 94%; kinase still bound, per cent of control [3]: 100%; kinase still bound, per cent of control (PRKD3 (human)): 81%; kinase still bound, per cent of control (MAK (human)): 100%; kinase still bound, per cent of control (CDK5 (human)): 80%; kinase still bound, per cent of control (RPS6KA6 KD2 (human)): 85%; kinase still bound, per cent of control (MAP3K9 (human)): 93%; kinase still bound, per cent of control (NEK9 (human)): 89%; kinase still bound, per cent of control (CDC2L2 (human)): 96%; kinase still bound, per cent of control (DDR2 (human)): 100%; kinase still bound, per cent of control (MAP3K10 (human)): 92%; kinase still bound, per cent of control (SRPK3 (human)): 98%; kinase still bound, per cent of control (EGFR (human)): 40%; kinase still bound, per cent of control (EPHB3 (human)): 84%; kinase still bound, per cent of control [4]: 69%; kinase still bound, per cent of control (CDK19 (human)): 80%
COc1cc2ncnc(Nc3cccc(Cl)c3)c2cc1OC | 100 | 56 | 86 | 28 | 0.3 | 43 | 63 | 100 | 43 | 62 | 25 | 67 | 71 | 52 | 60 | 40 | 46 | 74 | 3.5 | 100 | kinase still bound, per cent of control (MAPK1 (human)): 100%; kinase still bound, per cent of control (RIPK4 (human)): 43%; kinase still bound, per cent of control (FGFR4 (human)): 98%; kinase still bound, per cent of control (PLK2 (human)): 44%; kinase still bound, per cent of control (FLT4 (human)): 79%; kinase still bound, per cent of control [3]: 38%; kinase still bound, per cent of control (PRKD3 (human)): 88%; kinase still bound, per cent of control (MAK (human)): 100%; kinase still bound, per cent of control (CDK5 (human)): 100%; kinase still bound, per cent of control (RPS6KA6 KD2 (human)): 38%; kinase still bound, per cent of control (MAP3K9 (human)): 86%; kinase still bound, per cent of control (NEK9 (human)): 78%; kinase still bound, per cent of control (CDC2L2 (human)): 77%; kinase still bound, per cent of control (DDR2 (human)): 42%; kinase still bound, per cent of control (MAP3K10 (human)): 100%; kinase still bound, per cent of control (SRPK3 (human)): 93%; kinase still bound, per cent of control (EGFR (human)): 0.05%; kinase still bound, per cent of control (EPHB3 (human)): 97%; kinase still bound, per cent of control [4]: 59%; kinase still bound, per cent of control (CDK19 (human)): 93%

— the kinase profiling compilation of Christmann-Franck et al. (2016)
